Assay results taken from patent publication US10670605B2, “Cysteine reactive probes and uses thereof” (The Scripps Research Institute, priority 2015, dated 2020).

Experiments:
POU2F2 C346 (P09086) = target: T1, POU2F2 C346 (P09086) (Homo sapiens, UniProt P09086); experiment: Competitive isoTOP-ABPP, cell lysates; assay type: binding; conditions: for isoTOP-ABPP ratio, P09086_C346 / R value (DMSO/fragment): 500 μM
T1 sequence (P09086 1-479): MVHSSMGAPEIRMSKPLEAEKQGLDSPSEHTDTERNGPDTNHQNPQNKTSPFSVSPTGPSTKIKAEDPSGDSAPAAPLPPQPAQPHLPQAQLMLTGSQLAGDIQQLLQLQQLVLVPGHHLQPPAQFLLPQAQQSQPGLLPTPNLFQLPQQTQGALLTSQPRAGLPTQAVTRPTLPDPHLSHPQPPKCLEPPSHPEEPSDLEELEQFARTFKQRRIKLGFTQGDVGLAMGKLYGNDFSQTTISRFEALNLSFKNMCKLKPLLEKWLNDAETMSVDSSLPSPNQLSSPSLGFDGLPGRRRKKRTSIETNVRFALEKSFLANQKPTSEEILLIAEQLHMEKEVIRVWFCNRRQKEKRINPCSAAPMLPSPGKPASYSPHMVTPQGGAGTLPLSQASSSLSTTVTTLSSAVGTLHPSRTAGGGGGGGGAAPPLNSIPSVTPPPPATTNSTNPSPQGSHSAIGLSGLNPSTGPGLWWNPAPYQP

VCPIP1 C219 (Q96JH7) = target: T2, VCPIP1 C219 (Q96JH7) (Homo sapiens, UniProt Q96JH7); experiment: Competitive isoTOP-ABPP, cell lysates; assay type: binding; conditions: for isoTOP-ABPP reactivity profile ratio, Q96JH7_C219 / isoTOP-ABPP reactivity ratio, Q96JH7_C219: 500 μm, in-vitro_ramos; for R value (DMSO/fragment): 500 μM
T2 sequence (Q96JH7 1-1222): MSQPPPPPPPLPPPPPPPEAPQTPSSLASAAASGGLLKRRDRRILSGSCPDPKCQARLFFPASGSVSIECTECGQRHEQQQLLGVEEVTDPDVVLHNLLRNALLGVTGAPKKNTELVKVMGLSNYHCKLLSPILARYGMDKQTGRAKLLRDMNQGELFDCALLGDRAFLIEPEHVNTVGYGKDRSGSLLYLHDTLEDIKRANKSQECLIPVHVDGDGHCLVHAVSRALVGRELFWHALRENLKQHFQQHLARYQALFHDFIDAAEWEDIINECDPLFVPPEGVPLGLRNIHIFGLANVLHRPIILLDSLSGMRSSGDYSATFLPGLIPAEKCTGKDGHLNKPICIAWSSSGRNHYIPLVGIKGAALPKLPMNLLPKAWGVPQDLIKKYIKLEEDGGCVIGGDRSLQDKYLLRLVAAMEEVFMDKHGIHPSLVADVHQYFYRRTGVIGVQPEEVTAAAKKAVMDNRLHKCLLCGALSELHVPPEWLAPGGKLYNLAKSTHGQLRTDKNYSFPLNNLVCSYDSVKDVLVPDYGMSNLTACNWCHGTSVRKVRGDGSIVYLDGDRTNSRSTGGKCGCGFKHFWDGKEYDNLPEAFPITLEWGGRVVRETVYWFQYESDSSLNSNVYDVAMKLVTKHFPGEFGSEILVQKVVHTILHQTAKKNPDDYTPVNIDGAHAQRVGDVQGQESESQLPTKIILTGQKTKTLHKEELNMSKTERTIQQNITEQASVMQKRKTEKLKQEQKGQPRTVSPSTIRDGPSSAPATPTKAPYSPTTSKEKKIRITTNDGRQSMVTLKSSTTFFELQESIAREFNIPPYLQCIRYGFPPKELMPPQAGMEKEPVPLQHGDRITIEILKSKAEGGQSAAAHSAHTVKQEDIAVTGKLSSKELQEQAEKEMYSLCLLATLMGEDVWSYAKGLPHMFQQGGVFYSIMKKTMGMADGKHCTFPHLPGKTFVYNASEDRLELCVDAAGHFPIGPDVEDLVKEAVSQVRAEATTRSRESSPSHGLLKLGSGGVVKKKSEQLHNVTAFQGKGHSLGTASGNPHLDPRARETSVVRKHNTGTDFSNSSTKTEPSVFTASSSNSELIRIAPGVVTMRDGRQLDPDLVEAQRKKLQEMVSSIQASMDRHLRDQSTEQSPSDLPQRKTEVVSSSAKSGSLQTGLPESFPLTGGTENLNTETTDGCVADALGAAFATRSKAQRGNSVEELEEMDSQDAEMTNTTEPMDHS

Compound: C=CC(=O)N(Cc1cccnc1)c1ccc(Oc2ccccc2)c(C(F)(F)F)c1 [compound 15]
- isoTOP-ABPP ratio (reactivity profile), P09086_C346 (POU2F2 C346 (P09086); 500 μm in-vitro ramos): 0.8
- isoTOP-ABPP ratio (reactivity profile), Q96JH7_C219 (VCPIP1 C219 (Q96JH7); 500 μm in-vitro ramos): 1.3

Compound: CC(C)CCOCCNC(=O)CCl [compound 27]
- isoTOP-ABPP ratio (reactivity profile), Q96JH7_C219 (VCPIP1 C219 (Q96JH7); 500 μm in-vitro ramos_231): 1.7

Compound: O=C(CCl)Nc1cccc2ncccc12 [compound 51]
- isoTOP-ABPP reactivity profile ratio, Q96JH7_C219 (VCPIP1 C219 (Q96JH7)): 2.3

Compound: C=CC(=O)N(c1ccccc1)c1ccc(Br)cc1 [compound 5]
- isoTOP-ABPP ratio, P09086_C346 (POU2F2 C346 (P09086); invitro, ramos): 4.6

Compound: O=C(CCl)Nc1cc(C(F)(F)F)cc(C(F)(F)F)c1 [compound 3]
- R value (DMSO/fragment) (POU2F2 C346 (P09086); in vitro, MDA-MB-231): 1.7
- R value (DMSO/fragment) (POU2F2 C346 (P09086); invitro, ramos): 5.5
- R value (DMSO/fragment) (VCPIP1 C219 (Q96JH7); in vitro, MDA-MB-231): 20.0
- R value (DMSO/fragment) (VCPIP1 C219 (Q96JH7); invitro, ramos): 15.1

Compound: COc1ccc2c(c1)CCCN2C(=O)CCl [compound 2]
- R value (DMSO/fragment) (VCPIP1 C219 (Q96JH7); invitro, ramos): 1.1

Compound: N#C/C(=C\c1cc(C(F)(F)F)cc(C(F)(F)F)c1)C(N)=O [compound 23]
- isoTOP-ABPP ratio (reactivity profile), P09086_C346 (POU2F2 C346 (P09086); 500 μm in-vitro ramos): 1.1

Compound: C=CC(=O)Nc1cc(F)c(N2CCN(C(=O)OC(C)(C)C)CC2)c(F)c1 [compound 38]
- isoTOP-ABPP reactivity ratio, Q96JH7_C219 (VCPIP1 C219 (Q96JH7)): 1.8

Compound: C=CC(=O)Nc1cc(C)c(Br)cc1C [compound 40]
- isoTOP-ABPP reactivity ratio, Q96JH7_C219 (VCPIP1 C219 (Q96JH7)): 1.9

Compound: C=CC(=O)N(Cc1cccnc1)c1cc(C(F)(F)F)cc(C(F)(F)F)c1 [compound 31]
- isoTOP-ABPP reactivity ratio, P09086_C346 (POU2F2 C346 (P09086); 500 μm, in-vitro_ramos): 0.6
- isoTOP-ABPP reactivity ratio, Q96JH7_C219 (VCPIP1 C219 (Q96JH7)): 1.0

Compound: Cn1cc(S(=O)(=O)N2CCOCC2)cc1C(=O)NC(=O)CCl [compound 11]
- isoTOP-ABPP ratio, P09086_C346 (POU2F2 C346 (P09086); invitro, ramos): 1.7

Compound: O=C(CCl)NCCc1c[nH]c2ccccc12 [compound 13]
- isoTOP-ABPP ratio, P09086_C346 (POU2F2 C346 (P09086); invitro, ramos): 0.6

Compound: CC(Cl)C(=O)Nc1cc(C(F)(F)F)cc(C(F)(F)F)c1 (stereo not drawn) [compound 25]
- isoTOP-ABPP ratio (reactivity profile), P09086_C346 (POU2F2 C346 (P09086); 500 μm in-vitro ramos_231): 0.7

Compound: CC(Br)C(=O)Nc1cc(C(F)(F)F)cc(C(F)(F)F)c1 (stereo not drawn) [compound 24]
- isoTOP-ABPP ratio (reactivity profile), P09086_C346 (POU2F2 C346 (P09086); 500 μm in-vitro ramos): 1.1
- isoTOP-ABPP ratio (reactivity profile), Q96JH7_C219 (VCPIP1 C219 (Q96JH7); 500 μm in-vitro ramos): 1.2

Compound: O=C(CCl)NC12CC3CC(CC(C3)C1)C2 [compound 21]
- isoTOP-ABPP ratio (reactivity profile), P09086_C346 (POU2F2 C346 (P09086); 500 μm in-vitro ramos_231): 0.9

Compound: O=C(CCl)Nc1ccc(-c2ccccc2)cc1 [compound 52]
- isoTOP-ABPP reactivity profile ratio, Q96JH7_C219 (VCPIP1 C219 (Q96JH7)): 1.6

Compound: O=C(CCl)N1CCC(C(O)(c2ccccc2)c2ccccc2)CC1 [compound 20]
- isoTOP-ABPP ratio (reactivity profile), P09086_C346 (POU2F2 C346 (P09086); 500 μm in-vitro ramos): 2.3
- isoTOP-ABPP ratio (reactivity profile), Q96JH7_C219 (VCPIP1 C219 (Q96JH7); 500 μm in-vitro ramos): 1.2
